Measurements reported in PMC10460801 (Advanced Pharmaceutical Bulletin, 2022).
Converted amounts (≈) assume the structure as drawn. Like-named read-outs stand apart in the source and are kept apart here.

Columns and labels:
[1] = cited from earlier work
[2] = Saturation shake-flask equilibrium solubility (48 h, 37 °C, UV-Vis); assay type: physicochemical; settings: for solubility thermodynamic at 48 h: thermodynamic from solid, read-out: Css mean
Protocol: In this study dissolution test has been performed in the presence of amino acids within various media, including phosphate buffer solution (pH = 7.4), hydrochloric acid buffer (pH = 1.2), citrate buffer (pH = 6 and pH = 4.2), and distilled water (pH = 6.5). Briefly, for each buffer, a suitable amount of components was transferred to a 250 mL volumetric flask and then diluted with distilled water to the volume line. Finally, the pH of the solution was examined and set using a pH meter (Germany, Metrohm SWISS mode).
The saturation shake-flask method has been used for solubility studies. In brief, buffer solutions containing different concentrations of each amino acid were prepared. An excess amount of each drug was weighed in capped vials, then buffers alone and mixed with amino acids were added to the vials and the pH change was set again. After that, capped vials were shaken for about 48 hours on a shaker incubator (Korea, HYSC) at speed of 150 RPM and 37^ᵒC to reach equilibrium and result a saturated solution. After 48 hours the upper phase was separated and centrifuged. Filtered samples were diluted with buffer before reading their UV-Vis absorbance. Then the amount of solubility was calculated using a calibration curve considering the dilution coefficient. Each of the experiments was repeated three times.

[3] = cited from earlier work; remark: listed apart in the source
[4] = Citrate buffer, pH 6 before incubation, 48 h, 37 °C
[5] = Phosphate buffer, pH 7.4 before incubation, 48 h, 37 °C
[6] = Water, pH 6.5 before incubation, 48 h, 37 °C
[7] = aqueous buffer, Citrate buffer, pH 6 before incubation, 48 h, 37 °C
[8] = aqueous buffer, Phosphate buffer, pH 7.4 before incubation, 48 h, 37 °C
[9] = distilled water, pH 6.5, increasing GlucN
[10] = hydrochloric acid buffer, pH 1.2 before incubation, 48 h, 37 °C
[11] = Citrate buffer, pH 4.2 before incubation, 48 h, 37 °C

Compound: N[C@H]1C(O)O[C@H](CO)[C@@H](O)[C@@H]1O (stereo partly drawn) [GlucN, Glucosamine]
- water solubility [1]: 320 mg/mL (≈ 1790 mM)

Compound: CC(C)Cc1ccc(C(C)C(=O)O)cc1 (stereo not drawn) [IBU, Ibuprofen]
- intrinsic water solubility ([1]; free acid): ~0.06 mg/mL
- Measured Css Sample 1 [2, 4]: 5.33 mg/mL
- Measured Css Sample 2 [2, 4]: 5.05 mg/mL
- Measured Css Sample 3 [2, 4]: 5.24 mg/mL
- Measured Css Sample 1 [2, 5]: 10.51 mg/mL
- Measured Css Sample 2 [2, 5]: 10.33 mg/mL
- Measured Css Sample 3 [2, 5]: 10.51 mg/mL
- Measured Css Sample 1 [2, 6]: 3.21 mg/mL
- Measured Css Sample 2 [2, 6]: 3.11 mg/mL
- Measured Css Sample 3 [2, 6]: 3.06 mg/mL
- solubility thermodynamic at 48 h [2, 7]: 5200 µg/mL (≈ 25.2 mM)
- solubility thermodynamic at 48 h [2, 8]: 10400 µg/mL (≈ 50.7 mM)
- change of drug solubility in the presence of GlucN ([2]; citrate buffer, pH 6): solubility increased
- change of drug solubility in the presence of GlucN [2, 9]: follows an upward pattern
- solubility thermodynamic at 48 h ([2]; distilled water, Water, pH 6.5 before incubation, 48 h, 37 °C): 3120 µg/mL (≈ 15.1 mM)
- Css mean [2, 10]: 0.8 mg/mL
- Measured Css Sample 1 [2, 10]: 0.79 mg/mL
- Measured Css Sample 2 [2, 10]: 0.82 mg/mL
- Measured Css Sample 3 [2, 10]: 0.79 mg/mL
- solubility thermodynamic at 48 h ([2]; simulated gastric fluid, hydrochloric acid buffer, pH 1.2 before incubation, 48 h, 37 °C): 800 µg/mL (≈ 3.88 mM)
- unionized fraction in the stomach [3]: 99.9%

Compound: CN1C(C(=O)Nc2ccccn2)=C(O)c2ccccc2S1(=O)=O [PXM, Piroxicam]
- Measured Css Sample 1 [2, 11]: 0.28 mg/mL
- Measured Css Sample 2 [2, 11]: 0.23 mg/mL
- Measured Css Sample 3 [2, 11]: 0.25 mg/mL
- Measured Css Sample 1 [2, 4]: 0.14 mg/mL
- Measured Css Sample 2 [2, 4]: 0.13 mg/mL
- Measured Css Sample 3 [2, 4]: 0.15 mg/mL
- Measured Css Sample 1 [2, 5]: 1.25 mg/mL
- Measured Css Sample 2 [2, 5]: 1.32 mg/mL
- Measured Css Sample 3 [2, 5]: 1.32 mg/mL
- solubility thermodynamic at 48 h ([2]; aqueous buffer, Citrate buffer, pH 4.2 before incubation, 48 h, 37 °C): 250 µg/mL (≈ 0.754 mM)
- solubility thermodynamic at 48 h [2, 7]: 140 µg/mL (≈ 0.423 mM)
- solubility thermodynamic at 48 h [2, 8]: 1290 µg/mL (≈ 3.89 mM)
- change of drug solubility in the presence of GlucN ([2]; citrate buffer, pH 4.2): enhanced
- change of drug solubility in the presence of LYS ([2]; citrate buffer, pH 4.2, Figure 3B): did not follow a specific trend
- change of drug solubility in the presence of GlucN ([2]; citrate buffer, pH 6): improved the solubility
- change of drug solubility in the presence of GlucN [2, 9]: does not change significantly
- change of drug solubility in the presence of ARG ([2]; phosphate buffer, concentration above molar ratio 1:1 PXM/ARG, Figure 3A): solubility goes down
